# Patent US20080039438A1, “1B-Methylcarbapenem Derivative and Process for the Preparation Thereof” (Korea Institute of Science and Technology, priority 2004, published 2008)
# Read-outs that look alike come from different tables or passages of the source.
# Legend:
# [1] = tested on: Streptococcus pyogenes 308A; assay: MIC against standard strains (agar dilution); type: cell-based; settings: standard strain Streptococcus pyogenes 308A, 37° C., 18 to 20 hours, read-out: Minimum Inhibitory Concentration (MIC)
# [2] = tested on: Pseudomonas aeruginosa 1771; assay: MIC against standard strains (agar dilution); type: cell-based; settings: standard strain Pseudomonas aeruginosa 1771, 37° C., 18 to 20 hours, read-out: Minimum Inhibitory Concentration (MIC)
# Pseudomonas aeruginosa = assay: MIC against clinically isolated aerobic Gram-negative strains; type: cell-based; settings: 60 strains
# [3] = tested on: Pseudomonas aeruginosa 9027; assay: MIC against standard strains (agar dilution); type: cell-based; settings: standard strain Pseudomonas aeruginosa 9027, 37° C., 18 to 20 hours, read-out: Minimum Inhibitory Concentration (MIC)
# [4] = tested on: Klebsiella aerogenes 1522E; assay: MIC against standard strains (agar dilution); type: cell-based; settings: standard strain Klebsiella aerogenes 1522E, 37° C., 18 to 20 hours, read-out: Minimum Inhibitory Concentration (MIC)
# Enterococcus faecalis = assay: MIC against clinically isolated aerobic Gram-positive strains; type: cell-based; settings: 30 strains
# Escherichia coli DC 0 = assay: MIC against standard strains (agar dilution); type: cell-based; settings: DC0, standard strain Escherichia coli DC 0, 37° C., 18 to 20 hours, read-out: Minimum Inhibitory Concentration (MIC)
# Enterobacter aerogenes = assay: MIC against clinically isolated aerobic Gram-negative strains; type: cell-based; settings: 14 strains; for MIC50 / MIC90: Klebsiella aerogenes
# DHP-I = target: T1, DHP-I (Sus scrofa, UniProt P22412); type: in vitro ADME, porcine; settings: pig, 50 μg/ml, pH 7
# T1 construct: DHP-I used in the experiment was isolated from the kidney cortex of a porcine; from tissue; host or cells: porcine kidney cortex
# Protocol: To investigate the stability of sodium 3-carboxylate compound of formula (I) prepared in Example to DHP-I secreted in the kidney, the following experiment was performed.
# DHP-I used in the experiment was isolated from the kidney cortex of a porcine. The enzyme quantity at which the concentration of imipenem was reduced by one half by hydrolysis at 30° C. for 30 minutes was defined as one unit. 50 μg/ml of a test drug and a unit of DHP-I were added to 1 ml of MOPS buffer (pH 7.0), the mixture was maintained at 30° C. and OD values at 299 nm were measured after 0.5, 1, 2, 4 hours.
# [5] = tested on: Staphylococcus aureus SG511; assay: MIC against standard strains (agar dilution); type: cell-based; settings: standard strain Staphylococcus aureus SG511, 37° C., 18 to 20 hours, read-out: Minimum Inhibitory Concentration (MIC)
# Streptococcus pyogenes = assay: MIC against clinically isolated aerobic Gram-positive strains; type: cell-based; settings: 15 strains
# Enterobacter cloacae = assay: MIC against clinically isolated aerobic Gram-negative strains; type: cell-based; settings: 29 strains
# Escherichia coli = assay: as above; type: cell-based; settings: 30 strains
# [6] = Pharmacokinetics test in dogs; type: in vivo, Beagle dogs; settings: dog, intravenous, 5 mg/kg
# Protocol: (§1) The pharmacokinetic behavior of the sodium 3-carboxylate compound of Example was determined as follows. Male Sprague-Dawley rats (weighing 250 g, 14-15 weeks old, 5 rats/group) and Beagle dogs (weighing 10 kg, 3 dogs/group) were maintained by feeding conventional hard food at identical conditions for more than 7 days. The test animals were fasted except water for more than 24 hours before tested. […] 500 μl of each blood sample was centrifuged at 12,000 rpm for 30 seconds, the supernatant was filtered through a 0.22 μm filter, and analyzed by HPLC/UV, and the result was listed in Table 7.
# Providentia sp. = assay: MIC against clinically isolated aerobic Gram-negative strains; type: cell-based; settings: 13 strains
# [7] = Pharmacokinetics test in rats; type: in vivo, Sprague-Dawley rats
# Protocol: as §1
# [8] = tested on: Pseudomonas aeruginosa 1771M; assay: MIC against standard strains (agar dilution); type: cell-based; settings: read-out: Minimum Inhibitory Concentration (MIC)
# Klebsiella cxytoca 1082E = assay: MIC against standard strains (agar dilution); type: cell-based; settings: standard strain Klebsiella cxytoca 1082E, 37° C., 18 to 20 hours, read-out: Minimum Inhibitory Concentration (MIC)
# [9] = tested on: Methicillin-sensitive Staphylococcus aureus; assay: MIC against clinically isolated aerobic Gram-positive strains; type: cell-based; settings: 33 strains
# [10] = tested on: Pseudomonas aeruginosa 1592E; assay: MIC against standard strains (agar dilution); type: cell-based; settings: standard strain Pseudomonas aeruginosa 1592E, 37° C., 18 to 20 hours, read-out: Minimum Inhibitory Concentration (MIC)
# [11] = tested on: Streptococcus faecium MD 8b; assay: MIC against standard strains (agar dilution); type: cell-based; settings: Enterococcus faecium, MD8B, standard strain Streptococcus faecium MD 8b, 37° C., 18 to 20 hours, read-out: Minimum Inhibitory Concentration (MIC)
# Enterococcus faecium = assay: MIC against clinically isolated aerobic Gram-positive strains; type: cell-based
# Serratia marcescens = assay: MIC against clinically isolated aerobic Gram-negative strains; type: cell-based; settings: 14 strains
# [12] = Beagle, supernatant of centrifuged blood
# [13] = male, Sprague-Dawley, supernatant of centrifuged blood, rat, intravenous, 20 mg/kg
# [14] = clinically isolated Enterococcus faecium, 29 strains
# [15] = clinically isolated Enterococcus faecium, 29 strains, read-out: MIC50
# [16] = clinically isolated Enterococcus faecium, 29 strains, read-out: MIC90
# T1 sequence (P22412 17-384): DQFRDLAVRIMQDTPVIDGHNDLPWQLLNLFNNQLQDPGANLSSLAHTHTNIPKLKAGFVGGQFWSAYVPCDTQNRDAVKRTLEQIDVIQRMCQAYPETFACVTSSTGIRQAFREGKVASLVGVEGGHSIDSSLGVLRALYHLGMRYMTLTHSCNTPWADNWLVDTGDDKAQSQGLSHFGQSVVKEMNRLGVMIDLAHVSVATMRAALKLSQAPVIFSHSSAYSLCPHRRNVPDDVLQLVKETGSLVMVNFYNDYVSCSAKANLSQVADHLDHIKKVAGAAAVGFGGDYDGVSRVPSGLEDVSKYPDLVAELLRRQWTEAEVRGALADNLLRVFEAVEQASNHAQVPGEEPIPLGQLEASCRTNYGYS
smiles,measurement,setting,value
"C[C@@H](O)[C@H]1C(=O)N2C(C(=O)O)=C(S[C@@H]3CN[C@H](/C=C/c4cc(C(=O)O)no4)C3)[C@H](C)[C@H]12 [Example, (1R,5S,6S,8R,3′S,5′S)-2-{5′-[(E)-2-(3-carboxylic acid or sodium carboxylate-5-isoxazolo)ethenyl]pyrrolidin-3′-ylthio}-6-(1-hydroxyethyl)-1-methylcarbapen-2-em-3-carboxylic acid]",MIC,[1],0.049 µg/mL
same,MIC,[2],0.391 µg/mL
same,MIC50,Pseudomonas aeruginosa,4 µg/mL
same,MIC90,Pseudomonas aeruginosa,64 µg/mL
same,MIC Range,Pseudomonas aeruginosa,0.06 to 128 µg/mL
same,MIC,[3],0.098 µg/mL
same,MIC,[4],0.049 µg/mL
same,MIC50,Enterococcus faecalis,8 µg/mL
same,MIC90,Enterococcus faecalis,32 µg/mL
same,MIC Range,Enterococcus faecalis,4 to 32 µg/mL
same,MIC,Escherichia coli DC 0,0.025 µg/mL
same,MIC Range,Enterobacter aerogenes,0.015 to 0.12 µg/mL
same,MIC50,Enterobacter aerogenes,0.06 µg/mL
same,MIC90,Enterobacter aerogenes,0.25 µg/mL
same,higher stability to DHP-I than imipenem,DHP-I,about 25 fold
same,MIC,[5],0.098 µg/mL
same,MIC50,Streptococcus pyogenes,< 0.008 µg/mL
same,MIC90,Streptococcus pyogenes,< 0.008 µg/mL
same,MIC Range,Streptococcus pyogenes,<0.008 µg/mL
same,MIC50,Enterobacter cloacae,0.12 µg/mL
same,MIC90,Enterobacter cloacae,0.5 µg/mL
same,MIC Range,Enterobacter cloacae,0.015 to 2 µg/mL
same,MIC50,Escherichia coli,0.03 µg/mL
same,MIC90,Escherichia coli,0.25 µg/mL
same,MIC Range,Escherichia coli,0.008 to 2 µg/mL
same,AUC,[6]; [12],14400 ng·h/mL
same,half-life,[6]; [12],41 min
same,MIC50,Providentia sp.,0.06 µg/mL
same,MIC90,Providentia sp.,8 µg/mL
same,MIC Range,Providentia sp.,0.008 to 8 µg/mL
same,higher bioavailability than meropenem,"[7]; in rats, versus meropenem",about 4 fold
same,longer half-life than meropenem,"[7]; in rats, versus meropenem",about 3 fold
same,clearance,[7]; [13],13.3 ± 1.5 mL/min/kg
same,half-life,[7]; [13],12.4 ± 4.1 min
same,AUC,"[7]; male, Sprague-Dawley, supernatant of centrifuged blood, rat, intravenous, 20 mg/kg, read-out: AUC (converted)",25300 ng·h/mL
same,MIC,[8],0.391 µg/mL
same,MIC,Klebsiella cxytoca 1082E,0.049 µg/mL
same,MIC50,[9],0.12 µg/mL
same,MIC90,[9],0.12 µg/mL
same,MIC Range,[9],0.06 to 0.12 µg/mL
same,MIC,[10],0.195 µg/mL
same,MIC,[11],12.5 µg/mL
same,MIC Range,Enterococcus faecium; [14],16 to 128 µg/mL
same,MIC50,Enterococcus faecium; [15],128 µg/mL
same,MIC90,Enterococcus faecium; [16],128 µg/mL
same,MIC50,Serratia marcescens,0.03 µg/mL
same,MIC90,Serratia marcescens,16 µg/mL
same,MIC Range,Serratia marcescens,0.03 to 16 µg/mL
"C[C@@H](O)[C@H]1C(=O)N2C(C(=O)O)=C(SCCN=CN)C[C@H]12 [IPM, Imipenem]",MIC,[1],0.004 µg/mL
same,MIC,[2],0.781 µg/mL
same,MIC50,Pseudomonas aeruginosa,2 µg/mL
same,MIC90,Pseudomonas aeruginosa,16 µg/mL
same,MIC Range,Pseudomonas aeruginosa,0.5 to 128 µg/mL
same,MIC,[3],0.391 µg/mL
same,MIC,[4],0.195 µg/mL
same,MIC50,Enterococcus faecalis,1 µg/mL
same,MIC90,Enterococcus faecalis,4 µg/mL
same,MIC Range,Enterococcus faecalis,0.5 to 4 µg/mL
same,MIC,Escherichia coli DC 0,0.195 µg/mL
same,MIC Range,Enterobacter aerogenes,0.12 to 0.5 µg/mL
same,MIC50,Enterobacter aerogenes,0.12 µg/mL
same,MIC90,Enterobacter aerogenes,0.5 µg/mL
same,MIC,[5],0.013 µg/mL
same,MIC50,Streptococcus pyogenes,< 0.008 µg/mL
same,MIC90,Streptococcus pyogenes,< 0.008 µg/mL
same,MIC Range,Streptococcus pyogenes,<0.008 µg/mL
same,MIC50,Enterobacter cloacae,0.25 µg/mL
same,MIC90,Enterobacter cloacae,1 µg/mL
same,MIC Range,Enterobacter cloacae,0.12 to 1 µg/mL
same,MIC50,Escherichia coli,0.12 µg/mL
same,MIC90,Escherichia coli,0.5 µg/mL
same,MIC Range,Escherichia coli,0.06 to 1 µg/mL
same,MIC50,Providentia sp.,2 µg/mL
same,MIC90,Providentia sp.,2 µg/mL
same,MIC Range,Providentia sp.,0.25 to 4 µg/mL
same,MIC,[8],0.195 µg/mL
same,MIC,Klebsiella cxytoca 1082E,0.195 µg/mL
same,MIC50,[9],0.015 µg/mL
same,MIC90,[9],0.03 µg/mL
same,MIC Range,[9],0.015 to 0.06 µg/mL
same,MIC,[10],0.781 µg/mL
same,MIC,[11],0.781 µg/mL
same,MIC Range,Enterococcus faecium; [14],2 to 128 µg/mL
same,MIC50,Enterococcus faecium; [15],128 µg/mL
same,MIC90,Enterococcus faecium; [16],128 µg/mL
same,MIC50,Serratia marcescens,0.25 µg/mL
same,MIC90,Serratia marcescens,2 µg/mL
same,MIC Range,Serratia marcescens,0.12 to 4 µg/mL
"C[C@@H](O)[C@H]1C(=O)N2C(C(=O)O)=C(S[C@@H]3CN[C@H](C(=O)N(C)C)C3)[C@H](C)[C@H]12 [MPM, meropenem]",MIC,[1],0.007 µg/mL
same,MIC,[2],0.391 µg/mL
same,MIC50,Pseudomonas aeruginosa,2 µg/mL
same,MIC90,Pseudomonas aeruginosa,16 µg/mL
same,MIC,[3],0.195 µg/mL
same,MIC,[4],0.049 µg/mL
same,MIC50,Enterococcus faecalis,4 µg/mL
same,MIC90,Enterococcus faecalis,16 µg/mL
same,MIC Range,Enterococcus faecalis,2 to 16 µg/mL
same,MIC,Escherichia coli DC 0,0.025 µg/mL
same,MIC Range,Enterobacter aerogenes,0.015 to 0.06 µg/mL
same,MIC50,Enterobacter aerogenes,0.03 µg/mL
same,MIC90,Enterobacter aerogenes,0.06 µg/mL
same,MIC,[5],0.098 µg/mL
same,MIC50,Streptococcus pyogenes,< 0.008 µg/mL
same,MIC90,Streptococcus pyogenes,< 0.008 µg/mL
same,MIC Range,Streptococcus pyogenes,<0.008 µg/mL
same,MIC50,Enterobacter cloacae,0.03 µg/mL
same,MIC90,Enterobacter cloacae,0.25 µg/mL
same,MIC Range,Enterobacter cloacae,0.015 to 0.5 µg/mL
same,MIC50,Escherichia coli,0.015 µg/mL
same,MIC90,Escherichia coli,0.03 µg/mL
same,MIC Range,Escherichia coli,0.008 to 0.5 µg/mL
same,AUC,[6]; [12],11600 ng·h/mL
same,T1/2,[6],33 min
same,MIC50,Providentia sp.,0.06 µg/mL
same,MIC90,Providentia sp.,2 µg/mL
same,MIC Range,Providentia sp.,0.015 to 2 µg/mL
same,AUC,"[7]; rat, intravenous, 20 mg/kg",6380 ± 600 ng·h/mL
same,CL,"[7]; rat, intravenous, 20 mg/kg",54.2 ± 5.3 mL/min/kg
same,T1/2,"[7]; rat, intravenous, 20 mg/kg",4.0 ± 0.2 min
same,MIC,[8],0.098 µg/mL
same,MIC,Klebsiella cxytoca 1082E,0.049 µg/mL
same,MIC50,[9],0.12 µg/mL
same,MIC90,[9],0.12 µg/mL
same,MIC Range,[9],0.06 to 0.25 µg/mL
same,MIC,[10],0.098 µg/mL
same,MIC,[11],12.5 µg/mL
same,MIC50,Enterococcus faecium; Enterococcus faecium,128 µg/mL
same,MIC90,Enterococcus faecium; Enterococcus faecium,128 µg/mL
same,MIC50,Serratia marcescens,0.03 µg/mL
same,MIC90,Serratia marcescens,8 µg/mL
same,MIC Range,Serratia marcescens,0.03 to 8 µg/mL
